According to publication PMC12655637, “Design, Synthesis, and Mechanistic Study of Novel Ciprofloxacin/Thiazole Chalcone Hybrids as Potential Anticancer Agents” (Pharmaceuticals, 2025):

Tests used:
Assay in all cases: NCI-60 screening, one-dose (10 µM) and five-dose, SRB
HL-60(TB) = format: cell-based, human; settings: HL-60(TB)
MALME-3M = format: cell-based, human
HCT-116 = format: cell-based, human; settings: Homo sapiens
NCI-H322M = format: cell-based, human
IGROV1 = format: cell-based, human
RPMI-8226 = format: cell-based, human; settings: RPMI-8226
HT29 = format: cell-based, human
SW-620 = format: cell-based, human
HCC-2998 = format: cell-based, human
SK-MEL-5 = format: cell-based, human
HS 578T = format: cell-based, human
OVCAR-5 = format: cell-based, human; settings: five-dose, OVCAR-5
MCF7 = format: cell-based, human
HOP-62 = format: cell-based, human; settings: five-dose, HOP-62
SNB-75 = format: cell-based, human
SF-295 = format: cell-based, human
UACC-257 = format: cell-based, human
A498 = format: cell-based
LOX IMVI = format: cell-based, human
NCI/ADR-RES = format: cell-based, human
PC-3 = format: cell-based, human
HCT-15 = format: cell-based, human
K-562 = format: cell-based, human; settings: five-dose, K-562
KM12 = format: cell-based, human; settings: five-dose, KM12
786−0 = format: cell-based, human
M14 = format: cell-based, human
MDA-MB231/ATCC = format: cell-based
SN12C = format: cell-based, human
DU-145 = format: cell-based, human
SNB-19 = format: cell-based
[1] = Homo sapiens, five-dose, read-out: LC50 (the source's name)
[2] = Homo sapiens, IGROV-1, five-dose, IGROV1
[3] = Homo sapiens, HT-29, five-dose, HT29
[4] = Homo sapiens, five-dose, SW-620
[5] = Homo sapiens, five-dose, HCC-2998
[6] = Homo sapiens, five-dose, SK-MEL-5
[7] = Homo sapiens, read-out: LC50 (the source's name)
[8] = Homo sapiens, five-dose, SNB-75
[9] = Homo sapiens, five-dose, SF-295
[10] = Homo sapiens, five-dose, UACC-257
[11] = Homo sapiens, five-dose, HCT-15
[12] = Homo sapiens, five-dose, DU-145
[13] = Homo sapiens, five-dose, SNB-19

Cc1nc(SCC(=O)N2CCN(c3cc4c(cc3F)c(=O)c(C(=O)O)cn4C3CC3)CC2)sc1C(=O)/C=C/c1cccc(Cl)c1 [Compound 4b, (E)-7-(4-(2-((5-(3-(3-Chlorophenyl)acryloyl)-4-methylthiazol-2-yl)thio)acetyl)piperazin-1-yl)-1-cyclopropyl-6-fluoro-4-oxo-1,4-dihydroquinoline-3-carboxylic Acid]
IC50 (HL-60(TB); Homo sapiens, HL-60, five-dose): 3.7 µM
GI50 (HL-60(TB); Homo sapiens, five-dose): 2.6 µM
CC50 (HL-60(TB); [1]): 34.7 µM
TGI (HL-60(TB); five-dose): 11.2 µM
Growth percentage (MALME-3M; 10 μM, Melanoma): 143.6%
GI50 (MALME-3M; Homo sapiens, five-dose): > 100 µM
IC50 (MALME-3M; Homo sapiens, five-dose): > 100 µM
CC50 (MALME-3M; [1]): > 100 µM
TGI (MALME-3M; five-dose): 100.0 µM
activity at 10 µM (HCT-116; HCT-116, 10 μM, HCT-116, Colon Cancer, read-out: Growth percentage): 2.8%
GI50 (HCT-116; five-dose, HCT-116): 0.2 µM
IC50 (HCT-116; five-dose, HCT-116): 0.3 µM
Growth percentage (NCI-H322M; 10 μM, Non-Small-Cell Lung Cancer): 100.9%
GI50 (NCI-H322M; Homo sapiens, five-dose): > 100 µM
IC50 (NCI-H322M; Homo sapiens, five-dose): > 100 µM
LC50 (NCI-H322M; Homo sapiens, five-dose): > 100 µM
TGI (NCI-H322M; five-dose): 100.0 µM
Growth percentage (IGROV1; 10 μM, IGROV1, Ovarian Cancer): 73.9%
GI50 (IGROV1; [2]): > 100 µM
IC50 (IGROV1; [2]): > 100 µM
CC50 (IGROV1; Homo sapiens, IGROV-1, five-dose, IGROV1, read-out: LC50 (the source's name)): > 100 µM
TGI (IGROV1; five-dose, IGROV1): 100.0 µM
IC50 (RPMI-8226; Homo sapiens, RPMI-8226, five-dose): 0.3 µM
GI50 (RPMI-8226; Homo sapiens, five-dose): 0.2 µM
CC50 (RPMI-8226; [1]): 0.6 µM
TGI (RPMI-8226; five-dose): 0.3 µM
activity at 10 µM (HT29; Homo sapiens, HT-29, 10 μM, HT29, Colon Cancer, read-out: Growth percentage): 24.4%
GI50 (HT29; [3]): > 100 µM
IC50 (HT29; [3]): > 100 µM
CC50 (HT29; Homo sapiens, HT-29, five-dose, HT29, read-out: LC50 (the source's name)): > 100 µM
TGI (HT29; five-dose, HT29): 100.0 µM
activity at 10 µM (SW-620; Homo sapiens, 10 μM, SW-620, Colon Cancer, read-out: Growth percentage): 53.3%
GI50 (SW-620; [4]): 10.5 µM
IC50 (SW-620; [4]): 15.1 µM
CC50 (SW-620; Homo sapiens, five-dose, SW-620, read-out: LC50 (the source's name)): > 100 µM
TGI (SW-620; five-dose, SW-620): 40.7 µM
activity at 10 µM (HCC-2998; Homo sapiens, 10 μM, HCC-2998, Colon Cancer, read-out: Growth percentage): 25.6%
GI50 (HCC-2998; [5]): 1.2 µM
IC50 (HCC-2998; [5]): 2.2 µM
TGI (HCC-2998; five-dose, HCC-2998): 2.9 µM
activity at 10 µM (SK-MEL-5; Homo sapiens, 10 μM, SK-MEL-5, Melanoma, read-out: Growth percentage): 50.3%
GI50 (SK-MEL-5; [6]): 21.9 µM
IC50 (SK-MEL-5; [6]): > 100 µM
CC50 (SK-MEL-5; Homo sapiens, five-dose, SK-MEL-5, read-out: LC50 (the source's name)): > 100 µM
TGI (SK-MEL-5; five-dose, SK-MEL-5): 100.0 µM
activity at 10 µM (HS 578T; Homo sapiens, 10 μM, Breast Cancer, read-out: Growth percentage): 61.5%
GI50 (HS 578T; Homo sapiens, five-dose): 18.6 µM
IC50 (HS 578T; Homo sapiens, five-dose): 70.8 µM
CC50 (HS 578T; [1]): > 100 µM
TGI (HS 578T; five-dose): 75.9 µM
GI50 (OVCAR-5; Homo sapiens): > 100 µM
IC50 (OVCAR-5; Homo sapiens): > 100 µM
CC50 (OVCAR-5; [7]): > 100 µM
TGI (OVCAR-5): 100.0 µM
activity at 10 µM (MCF7; Homo sapiens, MCF7, 10 μM, MCF7, Breast Cancer, read-out: Growth percentage): 6.5%
GI50 (MCF7; Homo sapiens, five-dose, MCF7): 0.4 µM
IC50 (MCF7; Homo sapiens, five-dose, MCF7): 0.6 µM
CC50 (MCF7; Homo sapiens, five-dose, MCF7, read-out: LC50 (the source's name)): > 100 µM
TGI (MCF7; five-dose, MCF7): 3.5 µM
GI50 (HOP-62; Homo sapiens): 4.3 µM
IC50 (HOP-62; Homo sapiens): > 100 µM
CC50 (HOP-62; [7]): > 100 µM
TGI (HOP-62): 100.0 µM
activity at 10 µM (SNB-75; Homo sapiens, 10 μM, SNB-75, CNS Cancer, read-out: Growth percentage): 102%
GI50 (SNB-75; [8]): 28.8 µM
IC50 (SNB-75; [8]): > 100 µM
CC50 (SNB-75; Homo sapiens, five-dose, SNB-75, read-out: LC50 (the source's name)): > 100 µM
TGI (SNB-75; five-dose, SNB-75): 77.6 µM
activity at 10 µM (SF-295; Homo sapiens, 10 μM, SF-295, CNS Cancer, read-out: Growth percentage): 93.3%
GI50 (SF-295; [9]): > 100 µM
IC50 (SF-295; [9]): > 100 µM
CC50 (SF-295; Homo sapiens, five-dose, SF-295, read-out: LC50 (the source's name)): > 100 µM
TGI (SF-295; five-dose, SF-295): 100.0 µM
activity at 10 µM (UACC-257; Homo sapiens, 10 μM, UACC-257, Melanoma, read-out: Growth percentage): 77.9%
GI50 (UACC-257; [10]): > 100 µM
IC50 (UACC-257; [10]): > 100 µM
CC50 (UACC-257; Homo sapiens, five-dose, UACC-257, read-out: LC50 (the source's name)): > 100 µM
TGI (UACC-257; five-dose, UACC-257): 100.0 µM
activity at 10 µM (A498; Homo sapiens, A498, 10 μM, A498, Renal Cancer, read-out: Growth percentage): 36%
GI50 (A498; Homo sapiens, five-dose, A498): > 100 µM
IC50 (A498; Homo sapiens, five-dose, A498): > 100 µM
CC50 (A498; Homo sapiens, five-dose, A498, read-out: LC50 (the source's name)): > 100 µM
TGI (A498; five-dose, A498): 100.0 µM
activity at 10 µM (LOX IMVI; Homo sapiens, 10 μM, Melanoma, read-out: Growth percentage): 36.9%
GI50 (LOX IMVI; Homo sapiens, five-dose): 2.4 µM
IC50 (LOX IMVI; Homo sapiens, five-dose): 3 µM
CC50 (LOX IMVI; [1]): > 100 µM
TGI (LOX IMVI; five-dose): 100.0 µM
activity at 10 µM (NCI/ADR-RES; Homo sapiens, 10 μM, Ovarian Cancer, read-out: Growth percentage): 112%
GI50 (NCI/ADR-RES; Homo sapiens, five-dose): > 100 µM
IC50 (NCI/ADR-RES; Homo sapiens, five-dose): > 100 µM
CC50 (NCI/ADR-RES; [1]): > 100 µM
TGI (NCI/ADR-RES; five-dose): 100.0 µM
activity at 10 µM (PC-3; Homo sapiens, 10 μM, PC-3, Prostate Cancer, read-out: Growth percentage): 74.1%
GI50 (PC-3; Homo sapiens, five-dose, PC-3): 55 µM
IC50 (PC-3; Homo sapiens, five-dose, PC-3): > 100 µM
CC50 (PC-3; Homo sapiens, five-dose, PC-3, read-out: LC50 (the source's name)): > 100 µM
TGI (PC-3; five-dose, PC-3): 100.0 µM
activity at 10 µM (HCT-15; Homo sapiens, 10 μM, HCT-15, Colon Cancer, read-out: Growth percentage): 26.9%
IC50 (HCT-15; [11]): > 100 µM
LC50 (50% lethal concentration) (HCT-15; [11]): > 100 µM
TGI (HCT-15; five-dose, HCT-15): 100.0 µM
GI50 (K-562; Homo sapiens, K562): 4.2 µM
IC50 (K-562; Homo sapiens, K562): 4.9 µM
CC50 (K-562; Homo sapiens, K562, read-out: LC50 (the source's name)): > 100 µM
TGI (K-562): 100.0 µM
GI50 (KM12; Homo sapiens): 0.9 µM
IC50 (KM12; Homo sapiens): 1.3 µM
LC50 (KM12; Homo sapiens): 9.3 µM
TGI (KM12): 3.0 µM
activity at 10 µM (786−0; Homo sapiens, 10 μM, 786−0, Renal Cancer, read-out: Growth percentage): 74.3%
GI50 (786−0; Homo sapiens, five-dose, 786−0): > 100 µM
IC50 (786−0; Homo sapiens, five-dose, 786−0): > 100 µM
CC50 (786−0; Homo sapiens, five-dose, 786−0, read-out: LC50 (the source's name)): > 100 µM
TGI (786−0; five-dose, 786−0): 100.0 µM
activity at 10 µM (M14; Homo sapiens, 10 μM, M14, Melanoma, read-out: Growth percentage): 48.7%
GI50 (M14; Homo sapiens, five-dose, M14): 27.5 µM
IC50 (M14; Homo sapiens, five-dose, M14): 69.2 µM
CC50 (M14; Homo sapiens, five-dose, M14, read-out: LC50 (the source's name)): > 100 µM
TGI (M14; five-dose, M14): 100.0 µM
GI50 (MDA-MB231/ATCC; Homo sapiens, MDA-MB-231): > 100 µM
IC50 (MDA-MB231/ATCC; Homo sapiens, MDA-MB-231): > 100 µM
CC50 (MDA-MB231/ATCC; Homo sapiens, five-dose, MDA-MB-231/ATCC, read-out: LC50 (the source's name)): > 100 µM
TGI (MDA-MB231/ATCC; five-dose, MDA-MB-231/ATCC): 100.0 µM
activity at 10 µM (SN12C; Homo sapiens, 10 μM, Renal Cancer, read-out: Growth percentage): 51%
GI50 (SN12C; Homo sapiens, five-dose): 44.7 µM
IC50 (SN12C; Homo sapiens, five-dose): > 100 µM
CC50 (SN12C; [1]): > 100 µM
TGI (SN12C; five-dose): 100.0 µM
activity at 10 µM (DU-145; Homo sapiens, 10 μM, DU-145, Prostate Cancer, read-out: Growth percentage): 94.6%
GI50 (DU-145; [12]): > 100 µM
IC50 (DU-145; [12]): > 100 µM
CC50 (DU-145; Homo sapiens, five-dose, DU-145, read-out: LC50 (the source's name)): > 100 µM
TGI (DU-145; five-dose, DU-145): 100.0 µM
activity at 10 µM (SNB-19; Homo sapiens, 10 μM, SNB-19, CNS Cancer, read-out: Growth percentage): 54.7%
GI50 (SNB-19; [13]): 22.4 µM
IC50 (SNB-19; [13]): 49 µM
CC50 (SNB-19; Homo sapiens, five-dose, SNB-19, read-out: LC50 (the source's name)): > 100 µM
TGI (SNB-19; five-dose, SNB-19): 100.0 µM
